29 compounds from patent publication US9758492B2, “IDO inhibitors” (Bristol-Myers Squibb Company, priority 2013, dated 2017) can be followed below.

IDO, sequence (P14902 whole entry): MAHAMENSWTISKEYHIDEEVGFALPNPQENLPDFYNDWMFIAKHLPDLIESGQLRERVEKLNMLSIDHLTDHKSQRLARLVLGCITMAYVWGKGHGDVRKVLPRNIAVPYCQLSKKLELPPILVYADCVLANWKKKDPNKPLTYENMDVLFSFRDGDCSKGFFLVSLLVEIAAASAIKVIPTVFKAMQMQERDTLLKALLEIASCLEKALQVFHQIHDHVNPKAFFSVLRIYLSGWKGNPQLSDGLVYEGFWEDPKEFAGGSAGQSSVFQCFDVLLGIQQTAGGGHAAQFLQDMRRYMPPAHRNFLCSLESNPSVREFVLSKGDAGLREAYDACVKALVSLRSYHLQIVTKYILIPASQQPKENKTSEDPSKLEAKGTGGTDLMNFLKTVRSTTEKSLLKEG

The experiment has as its target IDO (Homo sapiens, UniProt P14902). Kind of experiment: LLE_IDO_ABS_DR (IDO assay).
What is called IC50 is the midpoint of a concentration-inhibition curve. Read a low IC50 as higher potency. `COc1ccccc1NC(=O)Nc1cc(-c2ccccc2-c2nnn[nH]2)ccc1N(CC(C)C)CC(C)C` [Example 281, 1-(4-(diisobutylamino)-2′-(1H-tetrazol-5-yl)biphenyl-3-yl)-3-(2-methoxyphenyl)urea] gave an IC50 of 1450 nM.

With `CC(C)CN(CC(C)C)c1ccc(-c2ccccc2-c2nnn[nH]2)cc1NC(=O)Nc1c(F)cc(F)cc1F` [Example 282, 1-(4-(diisobutylamino)-2′-(1H-tetrazol-5-yl)-[1,1′-biphenyl]-3-yl)-3-(2,4,6-trifluorophenyl)urea], the IC50 came to 8.2 nM.

As to `CC(C)CN(CC(C)C)c1ccc(-c2ccccc2-c2nn[nH]n2)cc1NC(=O)Nc1c(F)cccc1F` [Example 283, 1-(2,6-difluorophenyl)-3-(4-(diisobutylamino)-2′-(2H-tetrazol-5-yl)-[1,1′-biphenyl]-3-yl)urea], the midpoint of inhibition, the IC50, lay at 10 nM.

Regarding `CC(C)CN(CC(C)C)c1ccc(-c2ccccc2-c2nnn[nH]2)cc1NC(=O)Nc1ccc(S(C)(=O)=O)cc1F` [Example 284, 1-(4-(diisobutylamino)-2′-(1H-tetrazol-5-yl)-[1,1′-biphenyl]-3-yl)-3-(2-fluoro-4-(methylsulfonyl)phenyl)urea], the midpoint of inhibition, the IC50, lay at 2090 nM.

In turn, `CC(C)CN(CC(C)C)c1ccc(-c2ccccc2-c2nnn[nH]2)cc1NC(=O)Nc1ccc(N=[N+]=[N-])cc1` [Example 285, 1-(4-azidophenyl)-3-(4-(diisobutylamino)-2′-(1H-tetrazol-5-yl)-[1,1′-biphenyl]-3-yl)urea] gave an IC50 of 2.28 nM.

The compound `CC(C)CN(CC(C)C)c1ccc(-c2ccccc2-c2nnn[nH]2)cc1NC(=O)Nc1ccc(F)c(Cl)c1` [Example 286, 1-(3-chloro-4-fluorophenyl)-3-(4-(diisobutylamino)-2′-(1H-tetrazol-5-yl)biphenyl-3-yl)urea] registered an IC50 of 110 nM.

`Cc1ccc(NC(=O)Nc2cc(-c3ccccc3-c3nnn[nH]3)ccc2N(CC(C)C)CC(C)C)cc1F` [Example 287, 1-(4-(diisobutylamino)-2′-(1H-tetrazol-5-yl)-[1,1′-biphenyl]-3-yl)-3-(3-fluoro-4-methylphenyl)urea] registered an IC50 of 4.47 nM.

`CC(C)CN(CC(C)C)c1ccc(-c2ccccc2-c2nnn[nH]2)cc1NC(=O)NC(C)(C)CC(C)(C)C` [Example 288, 1-(4-(Diisobutylamino)-2′-(1H-tetrazol-5-yl)-[1,1′-biphenyl]-3-yl)-3-(2,4,4-trimethylpentan-2-yl)urea] came in with an IC50 of 9120 nM.

As to `Cc1ccc(NC(=O)Nc2cc(-c3ccccc3-c3nnn[nH]3)ccc2N(Cc2ccccc2)CC(C)C)cc1` [Example 289, 1-(4-(Benzyl(isobutyl)amino)-2′-(1H-tetrazol-5-yl)-[1,1′-biphenyl]-3-yl)-3-(p-tolyl)urea], the midpoint of inhibition, the IC50, lay at 1210 nM.

In the case of `Cc1ccc(NC(=O)Nc2cc(-c3ccccc3-c3nnn[nH]3)ccc2N(Cc2ccccc2)CC(C)C)cc1` [Example 292, 1-(4-(benzyl(isobutyl)amino)-2′-(1H-tetrazol-5-yl)-[1,1′-biphenyl]-3-yl)-3-(p-tolyl)urea], the IC50 was 4.03 nM.

In turn, `O=C(Nc1cc(-c2ccccc2-c2nnn[nH]2)ccc1N(CCc1ccccc1)CCC(F)(F)F)Nc1ccccc1C(F)(F)F` [Example 295, 1-(4-(Phenethyl(3,3,3-trifluoropropyl)amino)-2′-(1H-tetrazol-5-yl)biphenyl-3-yl)-3-(2-(trifluoromethyl)phenyl)urea] registered an IC50 of 300 nM.

The compound `O=C(Nc1ccc(C2CC2)c(F)c1)Nc1cc(-c2ccccc2-c2nnn[nH]2)ccc1N(CCc1ccccc1)CCC(F)(F)F` [Example 296, 1-(4-Cyclopropyl-3-fluorophenyl)-3-(4-(phenethyl(3,3,3-trifluoropropyl)amino)-2′-(1H-tetrazol-5-yl)biphenyl-3-yl)urea] displayed an IC50 of 180 nM.

Take `O=C(Nc1ccc(C2CC2)c(F)c1)Nc1cc(-c2ccccc2-c2nnn[nH]2)ccc1N(CCCC(F)(F)F)Cc1ccc(Cl)cc1` [Example 297, 1-(4-((4-chlorobenzyl)(4,4,4-trifluorobutyl)amino)-2′-(1H-tetrazol-5-yl)-[1,1′-biphenyl]-3-yl)-3-(4-cyclopropyl-3-fluorophenyl)urea]: the half-maximal inhibitory concentration (IC50) turned out to be 10 nM.

In turn, `O=C(Nc1ccc(C2CC2)cc1)Nc1cc(-c2ccccc2-c2nnn[nH]2)ccc1N(CCc1ccccc1)CCC(F)(F)F` [Example 298, 1-(4-cyclopropylphenyl)-3-(4-(phenethyl(3,3,3-trifluoropropyl)amino)-2′-(1H-tetrazol-5-yl)-[1,1′-biphenyl]-3-yl)urea] came in with a half-inhibitory concentration (IC50) of 80 nM.

On to `O=C(Nc1ccc(C(F)(F)F)cc1F)Nc1cc(-c2ccccc2-c2nnn[nH]2)ccc1N(CCC(F)(F)F)Cc1ccc(F)cc1C(F)(F)F` [Example 300, 1-(4-((4-fluoro-2-(trifluoromethyl)benzyl) (3,3,3-trifluoropropyl)amino)-2′-(1H-tetrazol-5-yl)-[1,1′-biphenyl]-3-yl)-3-(2-fluoro-4-(trifluoromethyl)phenyl)urea], for which half-maximal inhibition (IC50) was put at 180 nM.

For the compound `O=C(Nc1ccc(C2CC2)cc1)Nc1cc(-c2ccccc2-c2nnn[nH]2)ccc1N(CCC(F)(F)F)Cc1ccccn1` [Example 304, 1-(4-cyclopropylphenyl)-3-(4-((pyridin-2-ylmethyl)(3,3,3-trifluoropropyl)amino)-2′-(1H-tetrazol-5-yl)-[1,1′-biphenyl]-3-yl)urea], the IC50 is 70 nM.

`Cc1ccc(NC(=O)Nc2cc(-c3ccccc3-c3nnn[nH]3)ccc2N2CCC(F)(F)C2)cc1` [Example 315, 1-(4-(3,3-difluoropyrrolidin-1-yl)-2′-(1H-tetrazol-5-yl)-[1,1′-biphenyl]-3-yl)-3-(p-tolyl)urea] came in with an IC50 of 7770 nM.

`O=C(Nc1ccc(OC(F)(F)F)cc1)Nc1cc(-c2ccccc2-c2nnn[nH]2)ccc1N1CCC(F)(F)C1` [Example 316, 1-(4-(3,3-difluoropyrrolidin-1-yl)-2′-(1H-tetrazol-5-yl)-[1,1′-biphenyl]-3-yl)-3-(4-(trifluoromethoxy)phenyl)urea]: half-maximal inhibition (IC50) required 7720 nM.

Compound `O=C(Nc1ccc(OC(F)(F)F)cc1)Nc1cc(-c2ccccc2-c2nnn[nH]2)ccc1N1CC2CC1CN2Cc1ccccc1` (centres unmarked) [Example 318, 1-(4-(5-benzyl-2,5-diazabicyclo[2.2.1]heptan-2-yl)-2′-(1H-tetrazol-5-yl)-[1,1′-biphenyl]-3-yl)-3-(4-(trifluoromethoxy)phenyl)urea] registered an IC50 of 120 nM.

Compound `Cc1ccc(NC(=O)Nc2cc(-c3ccccc3-c3nnn[nH]3)ccc2N(CCCC(F)(F)F)Cc2ccc(Cl)cc2)cc1` [Example 320, 1-(4-((4-chlorobenzyl)(4,4,4-trifluorobutyl)amino)-2′-(1H-tetrazol-5-yl)-[1,1′-biphenyl]-3-yl)-3-(p-tolyl)urea] displayed a half-inhibitory concentration (IC50) of 4.85 nM.

For `O=C(Nc1cc(-c2ccccc2-c2nnn[nH]2)ccc1N(CCCC(F)(F)F)Cc1ccc(Cl)cc1)Nc1ccccc1C(F)(F)F` [Example 321, 1-(4-((4-chlorobenzyl)(4,4,4-trifluorobutyl)amino)-2′-(1H-tetrazol-5-yl)-[1,1′-biphenyl]-3-yl)-3-(2-(trifluoromethyl)phenyl)urea], half-maximal inhibition (IC50) was put at 610 nM.

In turn, `O=C(Nc1ccc(OC(F)(F)F)cc1)Nc1cc(-c2ccccc2-c2nnn[nH]2)ccc1N(CCC(F)(F)F)Cc1ccc(F)cc1` [Example 323, 1-(4-((4-fluorobenzyl)(3,3,3-trifluoropropyl)amino)-2′-(1H-tetrazol-5-yl)-[1,1′-biphenyl]-3-yl)-3-(4-(trifluoromethoxy)phenyl)urea] came in with an IC50 of 540 nM.

`O=C(Nc1ccc(F)cc1F)Nc1cc(-c2ccccc2-c2nnn[nH]2)ccc1N(CCC(F)(F)F)Cc1ccc(F)cc1` [Example 324, 1-(2,4-difluorophenyl)-3-(4-((4-fluorobenzyl) (3,3,3-trifluoropropyl)amino)-2′-(1H-tetrazol-5-yl)-[1,1′-biphenyl]-3-yl) urea] showed an IC50 of 160 nM.

As to `Cc1ccc(NC(=O)Nc2cc(-c3ccccc3-c3nnn[nH]3)ccc2N(CCC(F)(F)F)Cc2ccc(F)cc2)cc1` [Example 325, 1-(4-((4-fluorobenzyl)(3,3,3-trifluoropropyl)amino)-2′-(1H-tetrazol-5-yl)-[1,1′-biphenyl]-3-yl)-3-(p-tolyl)urea], the 50% inhibitory concentration (IC50) was determined as 90 nM.

In turn, `O=C(Nc1cc(-c2ccccc2-c2nnn[nH]2)ccc1N(CCC(F)(F)F)Cc1ccc(F)cc1)Nc1ccccc1C(F)(F)F` [Example 326, 1-(4-((4-fluorobenzyl)(3,3,3-trifluoropropyl)amino)-2′-(1H-tetrazol-5-yl)-[1,1′-biphenyl]-3-yl)-3-(2-(trifluoromethyl)phenyl)urea] returned a half-inhibitory concentration (IC50) of 1330 nM.

In the case of `O=C(Nc1ccc(OC(F)(F)F)cc1)Nc1cc(-c2ccccc2-c2nnn[nH]2)ccc1N(CCC(F)(F)F)Cc1ccc(C(F)(F)F)cc1` [Example 327, 1-(2′-(1H-tetrazol-5-yl)-4-((4-(trifluoromethyl)benzyl)(3,3,3-trifluoropropyl)amino)-[1,1′-biphenyl]-3-yl)-3-(4-(trifluoromethoxy)phenyl)urea], the IC50 is 260 nM.

The compound `O=C(Nc1cc(-c2ccccc2-c2nnn[nH]2)ccc1N(CCC(F)(F)F)Cc1ccc(C(F)(F)F)cc1)Nc1ccccc1C(F)(F)F` [Example 328, 1-(2′-(1H-tetrazol-5-yl)-4-((4-(trifluoromethyl)benzyl)(3,3,3-trifluoropropyl)amino)-[1,1′-biphenyl]-3-yl)-3-(2-(trifluoromethyl)phenyl)urea] showed an IC50 of 390 nM.

Take `Cc1ccc(NC(=O)Nc2cc(-c3ccccc3-c3nnn[nH]3)ccc2N(CCC(F)(F)F)Cc2ccc(C(F)(F)F)cc2)cc1` [Example 329, 1-(2′-(1H-tetrazol-5-yl)-4-((4-(trifluoromethyl)benzyl)(3,3,3-trifluoropropyl)amino)-[1,1′-biphenyl]-3-yl)-3-(p-tolyl)urea]: the IC50 stood at 4.03 nM.

Regarding `O=C(Nc1ccc(F)cc1F)Nc1cc(-c2ccccc2-c2nnn[nH]2)ccc1N(CCC(F)(F)F)Cc1ccc(C(F)(F)F)cc1` [Example 330, 1-(2′-(1H-tetrazol-5-yl)-4-((4-(trifluoromethyl)benzyl)(3,3,3-trifluoropropyl)amino)-[1,1′-biphenyl]-3-yl)-3-(2,4-difluorophenyl) urea], the IC50 stood at 20 nM.
